According to US12441733B2, “Substituted 2,4-dioxotetrahydropyrimidines as intermediates in the synthesis of bruton's tyrosine kinase inhibitors” (Novartis AG, priority 2018, dated 2025):

Target: T1, IKZF3-GFP (Homo sapiens, UniProt Q96SW2+Q9UKT9)
T1 construct: expressed in transfected cells; host or cells: HEK293A (Invitrogen R70507), lentiviral transduction with pLenti6-IKZF3-GFP-Ires-RFP, blasticidin selection
Assay: IKZF3-GFP protein abundance flow cytometry assay in HEK293A cells
Assay type: cell-based
Conditions: HEK293A IKZF3-GFP-iresRFP cells, 24 h; for DC50: GFP signal by flow cytometry; for IKZF3 deg Amax: % protein remaining at maximum degradation
Protocol: BTK-GFP and IKZF3-GFP protein abundance flow cytometry assay in HEK293A cells:
Degradation of BTK or IKZF3 was measured in HEK293A cells (Invitrogen R70507) expressing either BTK-GFP and RFP or IKZF3-GFP and RFP from a stably integrated bicistronic BTK-GFP-iresRFP or IKZF3-GFP-iresRFP construct, respectively. Reduction of the GFP signal measured by flow cytometry served as readout for BTK or IKZF3 degradation after degrader treatment.
By analogy the bicistronic pLenti6-IKZF3-GFP-iresRFP was engineered by gateway cloning of IKZF3 from a pENTR221-IKZF3(STOP-Leu) construct into the previously described pLenti6-DEST-GFP-Ires-RFP vector using the LR Clonase kit (Invitrogen 11791-019) according to the manufacturer's manual. All vectors described have been sequenced for verification.
ii) Engineering of Stably Expressing 293A BTK-GFP-Ires-RFP and IKZF3-GFP-Ires-RFP Sensor Cells
293A BTK-GFP-Ires-RFP and IKZF3-GFP-ires-RFP sensor cells were generated by lentiviral vector transduction using the pLenti6-BTK-GFP-Ires-RFP or pLenti6-IKZF3-GFP-Ires-RFP sensor construct described before. Lentiviral particles were produced in HEK293FT cells (Invitrogen R70007) by co-transfection of 500 ng pLenti6-BTK-GFP-ires-RFP or pLenti6-IKZF3-GFP-Ires-RFP, 500 ng delta8.71 and 200 ng pVSVG diluted in 100 μl OptiMEM serum free medium (Invitrogen #11058-021) that was mixed after 5 min preincubation with 3 μl of Lipofectamine2000 (Invitrogen #11668-019) in 97 μl OptiMEM serum free medium. The mix was incubated for another 20 min at RT and then added on 1 ml of a freshly prepared suspension of HEK293FT cells in a well of a 6-well plate (concentration 1.2×10^6 cells/ml). 1 day after transfection, the medium was replaced with 1.5 ml of complete growth medium (DMEM high Glucose+10% FCS+1% L-Glutamine+1% NEAA+1% NaPyr.). 48 h post transfection supernatant containing viral transducing particles was collected and frozen at −80° C.
Two days before transduction with viral particles 1×10^5 HEK293A cells (Invitrogen R70507) were seeded in 2 ml growth medium in a well of a 6-well plate. Infection was performed with 90 μl of collected supernatant containing viral transducing particles in 1 ml medium including 8 μg/ml polybrene. 24 h post infection, stably transfected cells were selected with blasticidin at a concentration of 8 μg/ml.
Iii) Quantitative BTK-GFP and IKZF3-GFP Abundance Measurements
Stable HEK293A-BTK-GFP-iresRFP cells were maintained in complete growth medium (DMEM high Glucose+10% FCS+1% L-Glutamine+1% NEAA+1% NaPyr.) with passaging performed twice per week. On Day 0, HEK293A-BTK-GFP-iresRFP or HEK293A-IKZF3-GFP-iresRFP and HEK293A-iresRFP cells were seeded at 10,000 cells/well in a 96-well microtiter plate in 260 μl complete medium. On Day 1, cells were treated in duplicate with 10-point 1:3 dilution series of compound using the HP D300 Digital Dispenser (Tecan). DMSO concentrations were normalized across the plate to 0.1%. On Day 2, after 24 h of incubation at 37° C., treatment media was discarded, cells rinsed with 100 μl/well PBS and then detached using 40 μl trypsin/well for 5 min. Trypsin was neutralized with 100 μl/well PBS+20% FCS). Flow cytometry was performed on the samples using the BD FACS CANTO II (Becton Dickinson). Cell identification was then performed using forward (FSC) vs. side scatter (SSC) plots. […] Median GFP values for 5,000 single cells are used to determine BTK levels. Median GFP values from HEK293A-iresRFP are used as a background signal and thus defining 0% BTK signal. Median GFP values from DMSO treated HEK293A-BTK-GFP-iresRFP or HEK293A-IKZF3-GFP-iresRFP are used to define 100% BTK signal for subsequent DC50 curves (concentration at 50% BTK degradation).

T1 sequence (Q9UKT9 whole entry): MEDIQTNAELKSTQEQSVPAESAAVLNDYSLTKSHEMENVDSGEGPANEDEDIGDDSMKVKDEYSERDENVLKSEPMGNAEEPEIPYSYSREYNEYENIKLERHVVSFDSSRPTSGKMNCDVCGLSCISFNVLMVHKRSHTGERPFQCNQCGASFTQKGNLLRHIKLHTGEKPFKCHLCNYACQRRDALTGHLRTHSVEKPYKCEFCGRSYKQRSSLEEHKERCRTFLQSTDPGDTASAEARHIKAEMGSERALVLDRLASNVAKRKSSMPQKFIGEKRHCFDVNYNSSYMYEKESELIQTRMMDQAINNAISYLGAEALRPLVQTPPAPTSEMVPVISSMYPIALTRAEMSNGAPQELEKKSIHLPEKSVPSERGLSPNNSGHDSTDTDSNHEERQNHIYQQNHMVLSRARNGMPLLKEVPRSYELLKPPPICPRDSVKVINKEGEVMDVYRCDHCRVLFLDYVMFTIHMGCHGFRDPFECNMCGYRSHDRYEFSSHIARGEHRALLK
T1 sequence (Q96SW2 whole entry): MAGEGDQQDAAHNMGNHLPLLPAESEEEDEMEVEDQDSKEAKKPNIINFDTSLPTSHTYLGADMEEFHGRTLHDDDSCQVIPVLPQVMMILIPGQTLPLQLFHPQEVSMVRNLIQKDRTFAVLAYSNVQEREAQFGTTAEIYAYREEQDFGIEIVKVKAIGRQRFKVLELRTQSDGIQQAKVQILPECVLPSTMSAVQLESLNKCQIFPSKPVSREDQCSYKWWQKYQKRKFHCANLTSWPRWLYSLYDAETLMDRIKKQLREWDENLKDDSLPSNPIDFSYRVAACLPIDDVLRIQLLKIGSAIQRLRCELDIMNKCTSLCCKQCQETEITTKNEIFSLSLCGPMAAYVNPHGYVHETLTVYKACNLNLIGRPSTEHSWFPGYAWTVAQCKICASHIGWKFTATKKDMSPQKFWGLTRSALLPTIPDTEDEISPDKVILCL
T1 sequence (Q16531 whole entry partner): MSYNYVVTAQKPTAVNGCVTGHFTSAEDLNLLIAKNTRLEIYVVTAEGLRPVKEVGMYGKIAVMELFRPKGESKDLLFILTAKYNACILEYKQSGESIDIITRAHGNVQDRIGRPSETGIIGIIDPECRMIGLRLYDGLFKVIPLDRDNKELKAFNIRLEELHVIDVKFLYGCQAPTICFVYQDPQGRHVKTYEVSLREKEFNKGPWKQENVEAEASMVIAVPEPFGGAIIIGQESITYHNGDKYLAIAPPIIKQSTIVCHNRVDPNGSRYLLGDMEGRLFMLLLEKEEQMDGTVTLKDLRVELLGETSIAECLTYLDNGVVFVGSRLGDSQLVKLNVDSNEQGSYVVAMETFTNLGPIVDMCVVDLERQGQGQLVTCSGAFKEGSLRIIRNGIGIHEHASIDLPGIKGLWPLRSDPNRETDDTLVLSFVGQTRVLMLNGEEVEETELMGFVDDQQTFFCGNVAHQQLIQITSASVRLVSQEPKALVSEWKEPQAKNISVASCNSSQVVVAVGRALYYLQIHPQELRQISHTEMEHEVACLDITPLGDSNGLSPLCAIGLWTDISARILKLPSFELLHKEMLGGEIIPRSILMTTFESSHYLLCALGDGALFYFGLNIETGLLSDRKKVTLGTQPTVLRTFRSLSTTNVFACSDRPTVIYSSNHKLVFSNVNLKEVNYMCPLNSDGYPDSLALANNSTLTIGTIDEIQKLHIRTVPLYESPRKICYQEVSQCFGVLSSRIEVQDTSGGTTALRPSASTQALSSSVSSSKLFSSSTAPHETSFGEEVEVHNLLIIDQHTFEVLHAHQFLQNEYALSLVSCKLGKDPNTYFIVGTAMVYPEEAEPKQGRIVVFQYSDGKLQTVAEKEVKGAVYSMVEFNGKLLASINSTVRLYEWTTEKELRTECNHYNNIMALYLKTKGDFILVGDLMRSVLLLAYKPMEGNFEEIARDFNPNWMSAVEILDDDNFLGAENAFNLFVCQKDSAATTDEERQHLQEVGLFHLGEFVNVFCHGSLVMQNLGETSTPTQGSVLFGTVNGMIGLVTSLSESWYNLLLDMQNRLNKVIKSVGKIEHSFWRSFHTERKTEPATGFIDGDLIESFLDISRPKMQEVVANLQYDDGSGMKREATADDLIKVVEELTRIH

Row | DC50 [µM] | IKZF3 deg Amax [%] | Structure (SMILES)
1 | > 10 | 99.7 | COc1ccc(C(=O)N2CCN(C(=O)N3CCN(Cc4ccc(-c5cc6c(-c7cc(F)cc(NC(=O)c8ccc(C(C)(C)O)cc8F)c7C)ncnc6[nH]5)cc4)CC3)CC2)cc1N1CCC(=O)NC1=O [Compound 22, N-(3-(6-(4-((4-(4-(3-(2,4-Dioxotetrahydropyrimidin-1(2H)-yl)-4-methoxybenzoyl)piperazine-1-carbonyl)piperazin-1-yl)methyl)phenyl)-7H-pyrrolo[2,3-d]pyrimidin-4-yl)-5-fluoro-2-methylphenyl)-2-fluoro-4-(2-hydroxypropan-2-yl)benzamide]
2 | > 1.1 | 99.7 | Cc1c(NC(=O)c2ccc(C(C)(C)O)cc2F)cc(F)cc1-c1ncnc2[nH]c(-c3ccc(CCN4CCC5(CC4)CCN(C(=O)c4ccc(F)c(N6CCC(=O)NC6=O)c4)CC5)cc3)cc12 [Compound 47, N-(3-(6-(4-(2-(9-(3-(2,4-dioxotetrahydropyrimidin-1(2H)-yl)-4-fluorobenzoyl)-3,9-diazaspiro[5.5]undecan-3-yl)ethyl)phenyl)-7H-pyrrolo[2,3-d]pyrimidin-4-yl)-5-fluoro-2-methylphenyl)-2-fluoro-4-(2-hydroxypropan-2-yl)benzamide]
3 | > 10 | 100.5 | COc1ccc(C(=O)N2CCC(CN3CCC(Oc4ccc(-c5cc6c(-c7cc(F)cc(NC(=O)c8ccc(C(C)(C)O)cc8F)c7C)ncnc6[nH]5)cc4)CC3)CC2)cc1N1CCC(=O)NC1=O [Compound 19, N-(3-(6-(4-((1-((1-(3-(2,4-Dioxotetrahydropyrimidin-1(2H)-yl)-4-methoxybenzoyl)piperidin-4-yl)methyl)piperidin-4-yl)oxyl)phenyl)-7H-pyrrolo[2,3-d]pyrimidin-4-yl)-5-fluoro-2-methylphenyl)-2-fluoro-4-(2-hydroxypropan-2-yl)benzamide]
4 | > 10 | 94.5 | COc1ccc(C(=O)NCCN2CCOC3(CCN(Cc4ccc(-c5cc6c(-c7cc(F)cc(NC(=O)c8ccc(C(C)(C)O)cc8F)c7C)ncnc6[nH]5)cc4)CC3)C2)cc1N1CCC(=O)NC1=O [Compound 39, N-(3-(6-(4-((4-(2-(3-(2,4-dioxotetrahydropyrimidin-1(2H)-yl)-4-methoxybenzamido)ethyl)-1-oxa-4,9-diazaspiro[5.5]undecan-9-yl)methyl)phenyl)-7H-pyrrolo[2,3-d]pyrimidin-4-yl)-5-fluoro-2-methylphenyl)-2-fluoro-4-(2-hydroxypropan-2-yl)benzamide]
5 | > 5.5 | 99.8 | COc1ccc(C(=O)N2CCC3(CCN(CCc4ccc(-c5cc6c(-c7cc(F)cc(NC(=O)c8ccc(C(C)(C)O)cc8F)c7C)ncnc6[nH]5)cc4)CC3)CC2)cc1N1CCC(=O)NC1=O [Compound 31, N-(3-(6-(4-(2-(9-(3-(2,4-Dioxotetrahydropyrimidin-1(2H)-yl)-4-methoxybenzoyl)-3,9-diazaspiro[5.5]undecan-3-yl)ethyl)phenyl)-7H-pyrrolo[2,3-d]pyrimidin-4-yl)-5-fluoro-2-methylphenyl)-2-fluoro-4-(2-hydroxypropan-2-yl)benzamide]
6 | > 1.1 | 100.2 | Cc1c(NC(=O)c2ccc(C(C)(C)O)cc2F)cc(F)cc1-c1ncnc2[nH]c(-c3ccc(CN4CCC5(CC4)CCN(C(=O)c4ccc(F)c(N6CCC(=O)NC6=O)c4)CC5)cc3)cc12 [Compound 14, N-(3-(6-(4-((9-(3-(2,4-Dioxotetrahydropyrimidin-1(2H)-yl)-4-fluorobenzoyl)-3,9-diazaspiro[5.5]undecan-3-yl)methyl)phenyl)-7H-pyrrolo[2.3-d]pyrimidin-4-yl)-5-fluoro-2-methylphenyl)-2-fluoro-4-(2-hydroxypropan-2-yl)benzamide]
